Test results reported in patent US9980490B1, “Method of disinfecting bacterial contaminated surfaces or removing bacteria from contaminated surfaces” (priority 2014, dated 2018).
Where two headings read alike, the source gives them in different places.

Legend:
Streptococcus Group A = details: even numbered C8 to C18 fatty acids screened; cited from earlier work
Staphlycoccus aureous = details: even numbered C8 to C18 fatty acids screened; cited from earlier work
Candida albicans = details: even numbered C8 to C18 fatty acids screened; cited from earlier work
[1] = test system: Enterococcus faecalis (gram positive); assay: Suspension time-kill test of aqueous ammonium nonanoate, survivors assayed after neutralization; assay type: cell-based; details: 1% aqueous solution, 1 minute exposure, ambient temperature
Description: (§1) There were no other ingredients in these solutions except the ammonium salts and water. […] Suspensions of test bacteria were exposed to the 1% and 2% ammonium nonanoate solutions for specified exposure times at ambient temperature. After exposure, aliquots of the suspensions were transferred to neutralizer and assayed for survivors. Appropriate culture purity, neutralizer sterility, test population, and neutralization confirmation controls were performed. […] This is a reduction of live bacteria of >99.999%.

[2] = test system: Escherichia coli (gram negative); assay: as above; assay type: cell-based; details: 1% aqueous solution, 1 minute exposure, ambient temperature
Description: as §1

Staphylococcus aureous = assay: Suspension time-kill test of aqueous ammonium nonanoate; assay type: cell-based; details: 2% aqueous solution, 2 minutes
Description: as §1

[3] = test system: pseudomonas aeruginosa (gram negative); assay: as above; assay type: cell-based; details: 2% aqueous solution, 1 minute
Description: as §1

[4] = Highest aqueous concentration before salt precipitates; assay type: physicochemical; details: room temperature; above this insoluble salt precipitates
Description: The final salt (soap) product, ammonium nonanoate, is made by neutralization by mixing the oleic-derived nonanoic acid with an equal molar amount of ammonia dissolved in water until a clear one-phase solution with a pH range of 7.5 to 8.5 occurs. At this point all of the acid is converted to ammonium salt: none remains in the product. […] The final concentration of ammonium nonanoate depends on the amount of water used. The highest concentration that can be made is approximately 40% since above this concentration at room temperature, insoluble salt precipitates as a solid.

mammals and birds = details: EPA Biochemical Division registration as bioherbicide; cited from earlier work
[5] = according to the EPA; cited from earlier work
mice = details: oral, Federal Register; cited from earlier work
human skin = details: 12% solution, 48 hr. closed patch test; cited from earlier work
rats [6] = details: cited from earlier work; for LD50: oral, Federal Register
rats [7] = details: cited from earlier work

## CCCCCCCCCC(=O)O [capric acid]
Streptococcus Group A
  antimicrobial activity relative to other fatty acids tested: highest activity
Staphlycoccus aureous
  antimicrobial activity relative to other fatty acids tested: highest activity
Candida albicans
  antimicrobial activity relative to other fatty acids tested: highest activity

## CCCCCCCCC(=O)O.N [ammonium nonanoate]
[1]
  log reduction in the population: 5 log
  reduction of live bacteria: > 99.999%
[2]
  log reduction in the population: 5 log
  reduction of live bacteria: > 99.999%
Staphylococcus aureous
  reduction in population: > 99.999%
[3]
  reduction in population: > 99.999%
[4]
  highest concentration that can be made in water: approximately 40%
Mammals and birds
  toxicity to mammals and birds: non-toxic
[5]
  time to biodegradation after formation: ≤ 24 h

## CCCCCCCCC(=O)O [nonanoic acid]
mice
  LD50: 5,000 mg/kg
Human skin
  irritation on human skin: no irritation
Rats [6]; male rats
  oral LD50: > 9,000 mg/kg
Rats [6]; rats, indicated by no death at 3,200 mg/kg
  LD50: over 3,200 mg/kg
Rats [6]; rats
  LD50: 5,000 mg/kg
Rats [6]; rats, Patty's Industrial Hygiene and Toxicology
  oral LD50: 15 g/kg
Rats [6]; undiluted, oral, 3,200 mg/kg body weight, Federal Register Vol. 69 No. 52 p. 12672
  death of rats: did not cause death of any of the rats
Rats [7]; 0.46 mg/liter as an aerosol for four hours
  mortality: no mortality
Rats [7]; atmospheric concentration (125 ppm), 6 hours
  symptoms of toxicity: no symptoms of toxicity
